These results are taken from patent US5288705A, “Manipulation of ovulation and spawning in fish” (Israel Oceanographic & Limnological Research Ltd., priority 1988, dated 1994).

Holding throughout (assay type): in vivo
For assay [1], the system named is Female seabream (Sparus aurata). Briefly: Plasma GtH levels by specific homologous radioimmunoassay after GnRHa administration (Example 1). The settings on record: FIG. 1. The procedure: (§1) Female seabream (Sparus aurata) reaching final stages of vitellogenesis received one of the following treatment of GnRHa - an analog of mammalian GNRH ([D-Ala^6 -Pro^9 -NET]-LHRH):
(§2) 1. An intramuscular injection of GnRHa in a saline solution (10 μg GnRHa/kg body weight which is an acceptable amount for injection);
(§3) 2. Implantation of a Silastic implant (Sila.) according to Crim et al., 1986, containing GnRHa (150 μg GnRHa/fish);
(§4) 3. Implantation of a biodegradable copolymer of polylacticpolyglycolic acid (Z. implant) containing GnRHa (150 μg GnRHa/fish);
(§5) 4. Placebo injection of saline (Control).
Before the treatment and at various intervals thereafter, the fish were bled. After withdrawing a blood sample the fish were returned into the water. GtH levels were determined in the withdrawn blood sample by specific homologous radioimmunoassay. The results are shown in FIG. 1 of the annexed drawings.

Assay [2] has the same test system. The assay can be described thus: Spawning activity of treated females kept with two males (Example 1). Conditions: spawning activity = tens of thousands of fertilized eggs per day over more than one week. As to the method:
as §1, §2, §3, §4, §5
Additionally, several treated, non-bled females from each treatment group were kept, each in a separate container, which was connected to an egg collector, together with two males. The females were followed for their spawning activity, which was defined in this experiment as tens of thousands of fertilized eggs collected per day over a period of more than one week.

Assay [3] has as its system females of rainbow trout, Salmo gaixdneri. Briefly: Blood GtH levels after hormone administration (Example 4). The procedure:
(§6) 24 females of rainbow trout, Salmo gaixdneri, were divided into four groups, six fish in each group. Each group received one of the following treatments:
(§7) 1. Injection of the mammalian GnRHa as in Example 1 ([…] body weight), in saline;
(§8) 2. Administration of a biodegradable copolymer of polylactic-polyglycolic acid containing the same GnRHa (150 mg/fish 150 μg/fish) in pellets, implanted under the fish's skin;
(§9) 3. Ethylene vinyl acetate copolymer pellets containing a fish GnRH analog (GNRHH) - [D-Arg^6 -Pro^9 -NET]sGnRH (150 mg/fish 150 μg/fish),implanted under the skin;
All fish were bled before and at different intervals after hormone administration, for the determination of blood GtH levels, similarly as in Example 1.

Assay [4] shares this test system. Briefly: Occurrence of ovulation monitored by ovarian biopsy (Example 4). As to the method: as §6, §7, §8, §9
An additional four groups of 20 females in each group, undergoing advanced stages of vitellogenesis, were treated as above and used for monitoring the state of ovarian development and the occurrence of ovulation. An overian biopsy was sampled from these females every 2 to 4 days for 30 days post-treatment.

Consider [D-Ala^6 -Pro^9 -NET]-LHRH [Group 1], for which the “plasma GtH level / GtH release” value in assay [1] is on record as “decreased rapidly”. Besides, the “percentage of the females showing spawning activity” value in assay [2] is on record as 25%. Also, the “period of GtH level surge in plasma” value in assay [3] is given as “about 48 hrs”. Further, the “degree of ovulation (in percent of ovulated females)” value in assay [4] (6 days post treatment) was 30%; in assay [4] (9 days post treatment) it was 40%; in assay [4] (30 days post treatment) it was 60%. Moreover, the “acceleration / synchronization of ovulation” value in assay [4] (versus control group) is listed as “did not accelerate or synchronize ovulation”.
